Experimental findings from patent US4704384A, “Aziridinyl quinone antitumor agents” (priority 1981, dated 1987) are described below.

“And” between values parts separate entries of the source, which are not always exact repeats. Identical values can stand only once. “Also recorded” adds a separate entry of the source. Like-named read-outs stand apart in the source and are kept apart here.

Data set [1] in a line: Room temperature water solubility. In kind it is physicochemical. As to the method:
In the following examples, all melting points are uncorrected and were recorded on a Thomas-Hoover capillary melting point apparatus. Elemental analyses were performed by NIAMDD, NIH, Bethesda, Md. Fluoranil, ethyleneimine and 2-methylethyleneimine were obtained commercially. […] New compounds were identified by nmr and ir spectroscopy. In the tetraamino derivatives, the methylene protons of the aziridine rings usually occurred as a singlet at δ2.0-2.2 in CDCl3 or DMSO-d6. This absorption appeared at δ2.40 (CDCl3) for compound 11. Carbonyl absorption frequencies (nujol mull) occurred in the range 1620-1640 cm^-1 for the tetraamino compounds. Satisfactory elemental analyses (+0.4% of calculated values) are indicated by elemental symbols in Table VII. Room temperature water solubilities were determined by the incremental addition (pipet) of water to a weighed amount of compound with shaking. The solubility values in Table VII must be considered as approximate.

The test system of data set [2] is lymphocytic leukemia P388. In kind it is in vivo, murine.
In data set [3] the test system is lymphoid leukemia L1210.
The subject of data set [4] is lymphoid leukemia L1210. In kind it is in vivo, murine. The source says:
(§1) A third IC tumor model, the ependymoblastoma system, was also studied. This system requires intracerebral implantation of a solid tumor fragment while the IC L1210 and IC P388 systems utilize IC inoculated ascites tumor fluid. All three use IP drug treatment however. […] Cures (survivors from the group of six mice on the last day of the experiment) are indicated.

The test system of another data set is ependymoblastoma. In kind it is in vivo, murine.
Source text: ^c Ic tumor implantation, ip QD15 treatment schedule.
as §1

For the next data set, the system named is B16 melanocarcinoma. In kind it is in vivo, murine. The settings on record: QD1-9, at OD, Table IX.

One may read the ILS as how much longer treated animals lived than controls. As for `NC1=C(N2CC2)C(=O)C(N)=C(N2CC2)C1=O` [Compound 33, 2,5-DIZAIRIDINYL-3,6-DIAMINO-1,4-BENZOQUINONE], the “solubility” value in data set [1] was “so insoluble in any solvent”. Also, the OD in data set [2] (QD1-9, Table IX) is 0.2 mg/kg/injection; in the data set with lymphoid leukemia L1210 [3] (Day 1 only (1 injection), Table VIII), 1.0 mg/kg/injection and 0.5 mg/kg/injection; in the data set with lymphoid leukemia L1210 [3] (QD1-9 (9 injections), Table VIII) it was 0.4 mg/kg/injection and 0.3 mg/kg/injection; in the data set on lymphoid leukemia L1210 [4] (QD1-9, Table X) it was 0.3 mg/kg/injection; in the data set with ependymoblastoma (QD1-5, Table X), 0.2 mg/kg/injection. Further, the increase in lifespan (ILS) in data set [2] (QD1-9, at OD, Table IX) was 171% and 156%; in the data set on lymphoid leukemia L1210 [3] (Q4D, at OD, Table VIII), 161% and 124%; in the data set on lymphoid leukemia L1210 [3] (QD1-9, at OD, Table VIII), 115% and 100%; with lymphoid leukemia L1210 [4] (QD1-9, at OD, Table X), 60% and 59%; in the data set with ependymoblastoma (QD1-5, at OD, Table X), 215% and 177%; with B16 melanocarcinoma it was 31% and 19%. The “animals alive per 6” value in data set [2] (QD1-9, day 30, at OD, Table IX) was 1; in the data set with lymphoid leukemia L1210 [3] (Q4D, day 30, at OD, Table VIII), 3 and 2; in the data set with ependymoblastoma (QD1-5, day 60, at OD, Table X) it was 4 and 6. Besides, the “survivors, P388” value in data set [2] (Table XI, parentheses, per 6) turned out to be 1. Also, the “survivors, IP L1210” value in the data set with lymphoid leukemia L1210 [3] (Table XI, parentheses, per 6) was 3. Moreover, the “activity in IC L1210” value in the data set on lymphoid leukemia L1210 [4] is listed as “most active; also recorded: significant activity”. Besides, in the data set on ependymoblastoma, the “activity in ependymoblastoma” value is recorded as “among the most active materials”. The “survivors, EM” value with ependymoblastoma (Table XI, parentheses, per 6) was 6.
